{"source": "patent US20050113256A1", "about": "“Methods of reducing the nicotine content of tobacco plants and tobacco plants obtained thereby” (priority 2003, published 2005)", "key": {"[1]": {"tested_on": "tobacco leaves (Nicotiana tabacum)", "test": "Treatment of individual tobacco leaves with test solutions, nicotine reduction", "format": "in vivo", "details": "incubated for about 3 days"}, "[2]": {"tested_on": "transgenic tobacco plant leaves", "details": "transgenic tobacco leaves starting at 0.05 mg per gram; one GOX-leaf bruising treatment", "excerpt": "One group of the tobacco plants was exposed to H. zea neonates for a three day period during the growing season. A second group of the tobacco plants was exposed to H. zea neonates multiple times each for a three-day period during the growing season. A third group of tobacco plants was isolated from H. zea neonates for establishing a control. The leaves were harvested at the end of the growing season and the caterpillars were removed. The tobacco leaves were air dried and processed. Each of the dried tobacco leaves were treated and extracted with 10 ml of 25 mM sodium phosphate buffer at 30° C. for about 24 hours at constant agitation."}, "[3]": {"tested_on": "parasitoids (wasps) (Cotesia glomerate)", "test": "Attraction of parasitoids (wasps) to cabbage plants treated with β-glucosidase", "format": "in vivo", "details": "amount of β-glucosidase in 25 μl", "source_text": "We have discovered that generic defense mechanisms are elicited by herbivores such as caterpillars. In this example, a caterpillar (Pieris brassicae) attacked a cabbage plant releasing a defensive mixture of volatiles which attract parasitic wasps (Cotesia glomerate) which then attack and destroy the caterpillars. The caterpillar gut regurgitant contains enzymatic β-glucosidase which elicits the mixture of volatiles referred to above. Commercial β-glucosidase performs in a similar manner.\nCabbage (eight weeks old) and P. Brassicae (caterpillar) and parasitoids (wasps) were reared according to the method of Steinberg S. et al., Entomol. Exp. Appl 63 163-175 (1992). […] Ion chromatograms identified […], 1-hexanol, E-2-hexene 1-YL acetate as major components of the volatiles released by the cabbage plants. This experiment illustrates another specific example (compare to H. zea) of evolutionary arms race wherein an elicitor-antagonist biological system focuses on a defensive enzyme reaction."}}, "data": [{"substance": "glucose oxidase [Active GOX]", "values": [{"measurement": "Reduction of Nicotine", "setting": "[1]", "value": "0.60 to 0.70", "unit": "mg/g"}, {"measurement": "nicotine content after treatment", "setting": "[2]", "value": "0.01 mg of nicotine/per gram"}]}, {"substance": "β-glucosidase", "values": [{"measurement": "attraction of parasitoids (wasps)", "setting": "[3]", "value": "clearly resulted in the attraction of parasitoids"}]}]}
